Assay results reported in patent US9809853B2, “Calcium-activated chloride channel involved in human sweat formation” (BRAIN Biotechnology Research and Information Network AG, priority 2012, dated 2017).

Biological target: T1, TMEM16A(acΔe3) (Homo sapiens, UniProt Q5XXA6)
T1 construct: expressed in transfected cells
T1 sequence (Q5XXA6 1-927 isoform Q5XXA6-4): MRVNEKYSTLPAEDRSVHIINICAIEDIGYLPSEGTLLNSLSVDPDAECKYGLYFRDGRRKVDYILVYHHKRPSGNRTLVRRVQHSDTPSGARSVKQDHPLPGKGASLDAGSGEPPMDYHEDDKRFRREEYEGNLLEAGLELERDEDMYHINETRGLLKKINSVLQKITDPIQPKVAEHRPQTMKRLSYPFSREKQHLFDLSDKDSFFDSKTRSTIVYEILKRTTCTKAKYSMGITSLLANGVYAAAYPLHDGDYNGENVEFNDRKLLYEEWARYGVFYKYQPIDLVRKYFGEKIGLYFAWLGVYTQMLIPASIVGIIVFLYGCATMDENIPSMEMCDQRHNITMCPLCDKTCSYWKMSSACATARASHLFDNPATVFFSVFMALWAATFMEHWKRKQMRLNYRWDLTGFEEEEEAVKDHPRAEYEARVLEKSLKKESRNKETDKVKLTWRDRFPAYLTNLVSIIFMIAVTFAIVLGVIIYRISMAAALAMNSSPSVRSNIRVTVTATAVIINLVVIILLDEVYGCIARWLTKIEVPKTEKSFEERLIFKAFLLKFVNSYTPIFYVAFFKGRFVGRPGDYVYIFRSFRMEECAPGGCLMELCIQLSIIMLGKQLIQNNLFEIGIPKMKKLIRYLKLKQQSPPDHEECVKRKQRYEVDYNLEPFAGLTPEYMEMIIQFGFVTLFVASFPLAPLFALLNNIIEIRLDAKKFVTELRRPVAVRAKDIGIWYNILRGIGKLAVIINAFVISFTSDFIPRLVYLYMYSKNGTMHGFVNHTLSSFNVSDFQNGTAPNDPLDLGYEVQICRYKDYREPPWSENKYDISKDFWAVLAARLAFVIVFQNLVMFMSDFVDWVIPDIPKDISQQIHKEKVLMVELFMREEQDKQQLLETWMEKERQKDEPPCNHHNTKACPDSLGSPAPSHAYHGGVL
Assay: hsYFP quenching assay in NCL-SG3-hsYFP-TMEM16A(acΔe3) cells
Assay type: cell-based
Details: 330 μM ATP; for Effect of pretreatment on hsYFP quenching / Ca^2+-dependent Cl^− secretion after ATP: cells overexpressing TMEM16A(acΔe3)
Method: NCL-SG3-hsYFP, NCL-SG 3-hsYFP-TMEM16A(ac) and NCL-SG3-hsYFP-TMEM16A(acΔe3) cells were untreated (basal activity) or stimulated with ATP (330 μM). Quenching of hsYFP fluorescence was determined. The rate of I^− influx (sec^−1) was calculated from the initial slope of measured hsYFP fluorescence (ΔYFP fluorescence/Δtime) and is a direct measure of CaCC activity. For better comparison fold changes compared to basal activity of parental cells are shown. […] All influx rate differences are higly statistically significant, except the basal influx rate of parental and TMEM16A(ac) overexpressing NCL-SG3-hsYFP cells (Student's t-test, two-tailed; *** p-value<0.0001).
TMEM16A(ac) and TMEM16A(acΔe3) are present in human eccrine sweat glands and were therefore obtained by RT-PCR amplification using TRIzol® (Invitrogen) extracted RNA from freshly isolated human eccrine sweat glands using oligonucleotides (forward 5′-[…]; reverse 5′-[…]) SEQ ID NOS: 5 and 6 , which amplify full-length TMEM16A, and subsequently cloned into the proprietary eukaryotic gene expression plasmid (pEF1α-TMEM16A(ac) and pEF1α-TMEM16A(acΔe3), FIG. 6A). […] Both genes are coupled by an internal ribosomal entry site (IRES) to enable efficient translation of both open reading frames located on the same mRNA. […]
Taken together, NCL-SG3-hsYFP cells can be used to monitor Ca^2+-dependent Cl^− fluxes, which represent the initial step in primary sweat formation in sweat gland cells. […] Microplates were transferred into an automated fluorescence plate reader (FlexStation®, Molecular Devices) and cellular hsYFP fluorescence was continuously recorded every 3.5 sec until end of the experiment (excitation at 485 nm, emission at 535 nm, cutoff 515 nm). […] NCL-SG3-hsYFP cells allow quantitative evaluation of in vivo Cl^− channel activity (FIGS. 9 and 10D). To determine the exact rate of Cl^− efflux/I^− influx the hsYFP fluorescence was plotted against time (ΔYFP fluorescence/Δtime). […]

Nc1ncnc2c1ncn2[C@@H]1O[C@H](COP(=O)(O)OP(=O)(O)OP(=O)(O)O)[C@@H](O)[C@H]1O [ATP]
ATP-induced activity (I^− influx rate, fold) (TMEM16A(acΔe3) overexpressing cells): 2 fold

O=C(OC[C@H]1O[C@@H](OC(=O)c2cc(O)c(O)c(OC(=O)c3cc(O)c(O)c(O)c3)c2)[C@H](OC(=O)c2cc(O)c(O)c(OC(=O)c3cc(O)c(O)c(O)c3)c2)[C@@H](OC(=O)c2cc(O)c(O)c(OC(=O)c3cc(O)c(O)c(O)c3)c2)[C@@H]1OC(=O)c1cc(O)c(O)c(OC(=O)c2cc(O)c(O)c(O)c2)c1)c1cc(O)c(O)c(OC(=O)c2cc(O)c(O)c(O)c2)c1 [TA, tannic acid]
Effect of pretreatment on hsYFP quenching / Ca^2+-dependent Cl^− secretion after ATP: significant reduction of hsYFP quenching
Effect of pretreatment on hsYFP quenching / Ca^2+-dependent Cl^− secretion after ATP (listed as tannic acid): inhibited
